Like-named read-outs stand apart in the source and are kept apart here.
Tests used:
Assay type in all cases: cell-based
p70S6K = assay: Luminex multiplex assay, p70S6K phosphorylation in cell lysates
Description: (§1) The multiplex Luminex assay format differs from conventional enzyme-linked immunosorbent assay (ELISA) in that the multiplex capture antibody is attached to a polystyrene bead whereas the ELISA capture antibody is attached to the microplate well. The use of the suspension bead-based technology enables the multiplexing capabilities of the Luminex assays. The xMAP® technology uses 5.6 micron polystyrene microspheres, which are internally dyed with red and infrared fluorophores of differing intensities. Each bead is given a unique number, or bead region, allowing differentiation of one bead from another. Beads covalently bound to different specific antibodies can be mixed in the same assay, utilizing a 96-well microplate format. At the completion of the sandwich immunoassay, beads can be read, using the Luminex 100™ or Luminex 200 detection system, in single-file by dual lasers for classification and quantification of each analyte. The Akt-Pathway Phospho 5-plex kit used was custom made and includes the ability to simultaneously measure p-GSK3β (S9), p-PRAS40(T246), and p-4E-BP1(T46).
(§2) Cells were plated at the required density. The cells were treated with either Compound 1 or rapamycin over a range of concentrations for 1 hour in 5% CO2 at 37° C. Compound 1 and rapamycin were used at the same concentrations as for the proliferation assay. As for the cell proliferation assay, a reference standard was included in the assay for PC3 cells and the coefficient of variation for assay of p-GSK3β(S9) was 37.8% (n=30), p-PRAS40(T246) was 27.8% (n=30) and for p4E-BP1(T46) was 13.5% (n=4). For three cell lines (HCT-116, MDA-MB-231 and HT29) in the assay for phosphorylation of GSK3β, PRAS40 and 4E-BP1, IGF-I stimulation (500 ng/mL, recombinant human IGF-I) for the last 10 min of incubation was used. The media was aspirated from the wells and the plate was placed on ice. Then 35 μL of Lysis Buffer was added to each well and incubated on ice for at least 30 minutes. During the incubation, the standard curve for each phosphoprotein was prepared. The standards provided were reconstituted and serial dilutions were prepared according to the manufacturer's instructions. At the end of the cell lysis step, […] of the lysate was transferred to a V-bottom plate and spun at 4° C. at 2000 rpm for 5 minutes. Both the 1× Luminex bead and 1× detector antibody solutions were prepared during this time. The 1× bead solution was vortexed and 25 μL was added into each well of a black round bottom plate. Then 50 μL of the 1× detector antibody was added to each well. Fifty microliters (50 μL) of the prepared standards were added to the designated wells. Then 25 μL of the assay diluent was added to each well designated for the compound-treated cell lysates. At the end of the spin, 25 μL of cell lysate was added to the corresponding wells of the black assay plate. The assay plate was covered with the white plate lid and incubated for 3 hours at room temperature on an orbital shaker.
(§3) Approximately 10-15 minutes prior to the end of the first incubation, the secondary antibody solution was prepared according to the vendor's protocol. Goat anti-rabbit R-phycoerythrin red fluorescent protein (RPE) supplied as a 10× concentrate was diluted to generate a 1× goat anti-rabbit RPE stock. The 96-well filter plate was pre-wet with 200 μL of 1× Working wash solution. At the end of the 3 hour incubation, a multichannel pipette was used to transfer the entire contents from each assay well into the wells of the filter plate. The liquid from the wells was removed by aspiration with the vacuum manifold. Then 200 μL of 1× Working wash solution was added into each well. The wash solution was aspirated using the vacuum manifold after 15-30 seconds. This wash step was repeated one time. The bottom of the plate was blotted on clean paper towels to remove residual liquid. […]

Phospho-GSK3β(S9) = assay: Luminex multiplex assay, Phospho-GSK3β(S9)
Description: (§4) Determination of Phospho-GSK3β(S9), Phospho-PRAS40(T246) and Phospho-4E-BP1(T46) and the Effect of Compound 1 or Rapamycin.
as §1, §2, §3

Phospho-PRAS40(T246) = assay: Luminex multiplex assay, Phospho-PRAS40(T246)
Description: as §4, §1, §2, §3

[1] = Homo sapiens, HCT-116, HCT116 cell line, IGF, read-out: Luminex p70S6K (IGF)
[2] = Homo sapiens, U-87 MG, U87MG cell line, read-out: Luminex p70S6K
[3] = Homo sapiens, HCT-116, HCT116 cell line, IGF, read-out: Luminex GSK-3β (IGF)
[4] = Homo sapiens, U-87 MG, U87MG cell line, read-out: Luminex GSK-3β
[5] = Homo sapiens, HCT-116, HCT116 cell line, IGF, read-out: Luminex PRAS40 (IGF)
[6] = Homo sapiens, U-87 MG, U87MG cell line, read-out: Luminex PRAS40
[7] = PC3 cell line, read-out: Luminex p70S6K
[8] = PC3 cell line, read-out: Luminex GSK-3β
[9] = PC3 cell line, read-out: Luminex PRAS40

| SMILES | IC50 (p70S6K; [7]) | IC50 (Phospho-GSK3β(S9); [8]) | IC50 (Phospho-PRAS40(T246); [9]) | other results |
| --- | --- | --- | --- | --- |
| CC(C)(O)c1ccc(-c2cnc3c(n2)N(CC2CCOCC2)CC(=O)N3)cn1 [A-1, 6-(6-(2-hydroxypropan-2-yl)pyridin-3-yl)-4-((tetrahydro-2H-pyran-4-yl)methyl)-3,4-dihydropyrazino[2,3-b]pyrazin-2(1H)-one] | – | – | – | IC50 (p70S6K; [1]): 2120 nM; IC50 (p70S6K; [2]): 526 nM; IC50 (Phospho-GSK3β(S9); [3]): 1740 nM; IC50 (Phospho-GSK3β(S9); [4]): 1220 nM; IC50 (Phospho-PRAS40(T246); [5]): 2610 nM; IC50 (Phospho-PRAS40(T246); [6]): 1660 nM |
| CCn1c(=O)[nH]c2ncc(-c3ccc(-c4nnc[nH]4)nc3C)nc21 [A-2, 1-ethyl-6-(2-methyl-6-(4H-1,2,4-triazol-3-yl)pyridin-3-yl)-1H-imidazo[4,5-b]pyrazin-2(3H)-one] | – | – | – | IC50 (p70S6K; [1]): 1240 nM; IC50 (p70S6K; [2]): 433 nM |
| CO[C@H]1CC[C@H](N2CC(=O)Nc3ncc(-c4ccc(C(C)(C)O)nc4)nc32)CC1 [A-3, 6-(6-(2-hydroxypropan-2-yl)pyridin-3-yl)-4-((1r,4r)-4-methoxycyclohexyl)-3,4-dihydropyrazino[2,3-b]pyrazin-2(1H)-one] | – | – | – | IC50 (p70S6K; HCT116 cell line, IGF, read-out: Luminex p70S6K (IGF)): 1820 nM; IC50 (p70S6K; U87MG cell line, read-out: Luminex p70S6K): 435 nM; IC50 (Phospho-GSK3β(S9); HCT116 cell line, IGF, read-out: Luminex GSK-3β (IGF)): 1290 nM; IC50 (Phospho-GSK3β(S9); U87MG cell line, read-out: Luminex GSK-3β): 1470 nM; IC50 (Phospho-PRAS40(T246); HCT116 cell line, IGF, read-out: Luminex PRAS40 (IGF)): 1370 nM; IC50 (Phospho-PRAS40(T246); U87MG cell line, read-out: Luminex PRAS40): 1160 nM |
| Cc1nc(-c2nnc[nH]2)ccc1-c1cnc2c(n1)N(CCC1CCOCC1)C(=O)CN2 [A-4, 7-(2-methyl-6-(4H-1,2,4-triazol-3-yl)pyridin-3-yl)-1-(2-(tetrahydro-2H-pyran-4-yl)ethyl)-3,4-dihydropyrazino[2,3-b]pyrazin-2(1H)-one] | – | – | – | IC50 (p70S6K; [1]): 96.6 nM; IC50 (p70S6K; [2]): 27.8 nM; IC50 (Phospho-GSK3β(S9); [3]): 96.2 nM; IC50 (Phospho-GSK3β(S9); [4]): 71 nM; IC50 (Phospho-PRAS40(T246); [5]): 120 nM; IC50 (Phospho-PRAS40(T246); [6]): 98 nM |
| COCCN1CC(=O)Nc2ncc(-c3ccc(-c4nnc[nH]4)nc3C)nc21 [A-5, 4-(2-methoxyethyl)-6-(2-methyl-6-(4H-1,2,4-triazol-3-yl)pyridin-3-yl)-3,4-dihydropyrazino[2,3-b]pyrazin-2(1H)-one] | – | – | – | IC50 (p70S6K; [1]): 514 nM; IC50 (p70S6K; [2]): 104 nM; IC50 (Phospho-GSK3β(S9); [4]): 2160 nM; IC50 (Phospho-PRAS40(T246); [5]): 762 nM; IC50 (Phospho-PRAS40(T246); [6]): 1090 nM |
| CC(C)(O)c1ccc(-c2cnc3c(n2)N(CC2CCOCC2)CC(=O)N3)cc1 [A-6, 6-(4-(2-hydroxypropan-2-yl)phenyl)-4-((tetrahydro-2H-pyran-4-yl)methyl)-3,4-dihydropyrazino[2,3-b]pyrazin-2(1H)-one] | – | – | – | IC50 (p70S6K; [1]): 654 nM; IC50 (p70S6K; [2]): 162 nM; IC50 (Phospho-GSK3β(S9); [4]): 2470 nM; IC50 (Phospho-PRAS40(T246); [5]): 492 nM; IC50 (Phospho-PRAS40(T246); [6]): 3240 nM |
| CCn1c(=O)[nH]c2ncc(-c3ccc(-c4nc[nH]n4)c(F)c3C)nc21 [A-7, 1-ethyl-6-(3-fluoro-2-methyl-4-(1H-1,2,4-triazol-3-yl)phenyl)-1H-imidazo[4,5-b]pyrazin-2(3H)-one] | – | – | – | IC50 (p70S6K; [1]): 470 nM; IC50 (p70S6K; [2]): 145 nM; IC50 (Phospho-GSK3β(S9); [4]): > 5000 nM; IC50 (Phospho-PRAS40(T246); [5]): 1020 nM; IC50 (Phospho-PRAS40(T246); [6]): 2850 nM |
| C[C@@H](O)c1ccc(-c2cnc3c(n2)N(CCC2CCOCC2)C(=O)CN3)cn1 [A-8, (R)-7-(6-(1-hydroxyethyl)pyridin-3-yl)-1-(2-(tetrahydro-2H-pyran-4-yl)ethyl)-3,4-dihydropyrazino[2,3-b]pyrazin-2(1H)-one] | – | – | – | IC50 (p70S6K; [1]): 91 nM; IC50 (p70S6K; [2]): 35.5 nM; IC50 (Phospho-GSK3β(S9); [4]): 402 nM; IC50 (Phospho-PRAS40(T246); [5]): 160 nM; IC50 (Phospho-PRAS40(T246); [6]): 255 nM |
| CC(C)(O)c1ccc(-c2cnc3[nH]c(=O)n(CC4CCCCC4)c3n2)cc1 [C-1] | 557 nM | > 1500 nM | > 1500 nM | – |
| CC(C)(O)c1ccc(-c2cnc3[nH]c(=O)n(CCC4CCOCC4)c3n2)cn1 [C-3] | 247 nM | 2590 nM | 1300 nM | – |
| CC(C)(O)c1ccc(-c2cnc3c(n2)N(CCC2CCOCC2)CC(=O)N3)cn1 [C-4] | 134 nM | 1110 nM | 678 nM | – |
| CC(C)(O)c1ccc(-c2cnc3c(n2)N(CC2CCOCC2)CC(=O)N3)cn1 [C-5] | 156 nM | 964 nM | 1750 nM | – |
| CC(C)(O)c1ccc(-c2cnc3c(n2)N(CCC2CCOCC2)C(=O)CN3)cn1 [C-7] | 34 nM | 179 nM | 140 nM | – |
| CO[C@H]1CC[C@H](N2CC(=O)Nc3ncc(-c4ccc(C(C)(C)O)nc4)nc32)CC1 [C-8] | 116 nM | 627 nM | 688 nM | – |
| COCCN1CC(=O)Nc2ncc(-c3ccc(-c4nnc[nH]4)nc3C)nc21 [C-10] | – | 1430 nM | 624 nM | – |
| CC(C)(O)c1ccc(-c2cnc3c(n2)N(CC2CCOCC2)CC(=O)N3)cc1 [C-11] | 201 nM | 1170 nM | 754 nM | – |
| CC(C)(O)c1ccc(-c2cnc3c(n2)N(CC2CC2)CC(=O)N3)cn1 [C-17] | 549 nM | > 5000 nM | 2900 nM | – |

| SMILES | IC50 (p70S6K; [7]) | IC50 (Phospho-GSK3β(S9); [8]) | IC50 (Phospho-PRAS40(T246); [9]) | other results |
| --- | --- | --- | --- | --- |
| O=C1CN(CCC2CCOCC2)c2nc(-c3ccc(-c4nnc[nH]4)c(F)c3)cnc2N1 [C-18] | 4 nM | 37 nM | 27 nM | – |
| COCCN1C(=O)CNc2ncc(-c3ccc(-c4nc[nH]n4)c(F)c3C)nc21 [C-19] | 6 nM | 156 nM | 53 nM | – |
| O=C1CNc2ncc(-c3ccc(-c4nnc[nH]4)c(F)c3)nc2N1CCC1CCOCC1 [C-20] | 6 nM | > 50 nM | > 50 nM | – |
| COC1CCC(CN2CC(=O)Nc3ncc(-c4ccc(C(C)(C)O)nc4)nc32)C1 (stereo not shown) [C-21] | 105 nM | 1680 nM | 795 nM | – |
| COC1CCC(CN2CC(=O)Nc3ncc(-c4ccc(C(C)(C)O)nc4)nc32)C1 (stereo not shown) [C-22] | 86 nM | 2980 nM | 1140 nM | – |
| COC1CCC(N2CC(=O)Nc3ncc(-c4ccc(C(C)(C)O)nc4)nc32)C1 (stereo not shown) [C-23] | 207 nM | 1770 nM | 1440 nM | – |
| COCCN1C(=O)CNc2ncc(-c3cnc(-c4nc[nH]n4)cc3C)nc21 [C-33] | 1 nM | 81 nM | – | – |
| Cc1cc(-c2nnc[nH]2)ccc1-c1cnc2c(n1)NC(=O)CN2 [C-35] | 815 nM | – | – | – |
| CO[C@@H]1CC[C@H](CN2CC(=O)Nc3ncc(-c4ccc(-c5nnc[nH]5)nc4C)nc32)C1 [C-36] | 16 nM | – | – | – |
| CO[C@H]1CC[C@@H](CN2CC(=O)Nc3ncc(-c4ccc(-c5nnc[nH]5)nc4C)nc32)C1 [C-37] | 24 nM | – | – | – |
| CCN1CC(=O)Nc2ncc(-c3ccc(-c4nnc[nH]4)nc3C)nc21 [C-45] | – | 738 nM | 1090 nM | – |
| COC1CCC(CN2C(=O)CNc3ncc(-c4ccc(-c5nc[nH]n5)nc4C)nc32)CC1 (stereo not shown) [C-46] | – | 218 nM | 144 nM | – |
| Cc1nc(-c2nnc[nH]2)ccc1-c1cnc2c(n1)N(C1CCOCC1)C(=O)CN2 [C-60] | – | 58 nM | 55 nM | – |
| CO[C@H]1CC[C@@H](CN2C(=O)CNc3ncc(-c4ccc(-c5nc[nH]n5)nc4C)nc32)CC1 [C-66] | – | 15 nM | 12 nM | – |
| Cc1nc(-c2nnc[nH]2)ccc1-c1cnc2c(n1)N(C1CCC(O)CC1)C(=O)CN2 (stereo not shown) [C-71] | – | 40 nM | 37 nM | – |
| Cc1nc(-c2nnc[nH]2)ccc1-c1cnc2c(n1)N(C1CCC(O)CC1)C(=O)CN2 (stereo not shown) [C-72] | – | 310 nM | 105 nM | – |
| Cc1nc(-c2nnc[nH]2)ccc1-c1cnc2c(n1)N(CCN1CCOCC1)C(=O)CN2 [C-73] | – | 671 nM | 261 nM | – |
